What follows are compounds tested against T1, HDM2 (Homo sapiens, UniProt Q00987) (assay: HDM2 FRET assay (inhibition of binding of FITC labeled p53-pocket peptide to HDM2)). Details: 0.5 nM HDM2 (residues 17 to 125), 3nM peptide, two hour incubation at room temperature; read-out: FRET IC50.
T1 construct: Thioredoxin (N); made in house; host or cells: E. coli strain BL21(DE3)Rosetta
T1 sequence (Q00987 17-125): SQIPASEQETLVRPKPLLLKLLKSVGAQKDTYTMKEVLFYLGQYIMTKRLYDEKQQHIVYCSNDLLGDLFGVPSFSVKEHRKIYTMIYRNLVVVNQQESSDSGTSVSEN
Summary of the method: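 Compounds were tested in 10-point serial dilution against 0.5 nM recombinant HDM2 binding 3 nM fluorescein-labeled p53-pocket peptide. Detection used 0.25 nM terbium cryptate anti-6xHis antibody in PBS buffer containing 0.01% BSA and 0.01% Tween-20.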
`CC(C)c1ccnc(-c2nc3nc(-c4nnn[nH]4)nc(N[C@H](C)C4CCC4)c3n2Cc2ccc(C(F)(F)F)cc2)c1` [Example 12.1, N-[(1R)-1-cyclobutylethyl]-8-[4-(propan-2-yl)pyridin-2-yl]-2-(1H-tetrazol-5-yl)-7-[4-(trifluoromethyl)benzyl]-7H-purin-6-amine] showed an IC50 of 8.35 nM. `CC(C)c1ccnc(-c2nc3nc(CO)nc(N[C@H](C)C4CCC4)c3n2Cc2ccc(C(F)(F)F)cc2)c1` [Example 12.2, (6-{[(1R)-1-cyclobutylethyl]amino}-8-[4-(propan-2-yl)pyridin-2-yl]-7-[4-(trifluoromethyl)benzyl]-7H-purin-2-yl)methanol] showed an IC50 of 597 nM. With `CC(C)c1ccnc(-c2nc3nc(-c4cnn[nH]4)nc(N[C@H](C)C4CCC4)c3n2Cc2ccc(C(F)(F)F)cc2)c1` [Example 12.3, N-[(1R)-1-cyclobutylethyl]-8-[4-(propan-2-yl)pyridin-2-yl]-2-(1H-1,2,3-triazol-5-yl)-7-[4-(trifluoromethyl)benzyl]-7H-purin-6-amine] the IC50 was 535 nM. `CC(=O)c1nc(N[C@H](C)C2CCC2)c2c(n1)nc(-c1cc(C(C)C)ccn1)n2C[C@H]1CC[C@H](C)CC1` [Example 12.5, 1-(6-{[(1R)-1-cyclobutylethyl]amino}-7-[(trans-4-methylcyclohexyl)methyl]-8-[4-(propan-2-yl)pyridin-2-yl]-7H-purin-2-yl)ethanone] showed an IC50 of 471 nM. `CC(C)c1ccnc(-c2nc3nc(C(C)O)nc(N[C@H](C)C4CCC4)c3n2C[C@H]2CC[C@H](C)CC2)c1` (stereo partly drawn) [Example 12.6, 1-(6-{[(1R)-1-cyclobutylethyl]amino}-7-[(trans-4-methylcyclohexyl)methyl]-8-[4-(propan-2-yl)pyridin-2-yl]-7H-purin-2-yl)ethanol] was tested, and the IC50 was 420 nM. Compound `CC(C)c1ccnc(-c2nc3nc(C(C)(C)O)nc(N[C@H](C)C4CCC4)c3n2C[C@H]2CC[C@H](C)CC2)c1` [Example 12.7, 2-(6-{[(1R)-1-cyclobutylethyl]amino}-7-[(trans-4-methylcyclohexyl)methyl]-8-[4-(propan-2-yl)pyridin-2-yl]-7H-purin-2-yl)propan-2-ol] has an IC50 of 731 nM. `CC(C)c1ccnc(-c2nc3nc(-c4nnn[nH]4)nc(N[C@H](C)C4CCC4)c3n2C[C@H]2CC[C@H](C)CC2)c1` [Example 12.8, N-[(1R)-1-cyclobutylethyl]-7-[(trans-4-methylcyclohexyl)methyl]-8-[4-(propan-2-yl)pyridin-2-yl]-2-(1H-tetrazol-5-yl)-7H-purin-6-amine] showed an IC50 of 1.91 nM. `CC(C)c1ccnc(-c2nc3nc(CNS(C)(=O)=O)nc(N[C@H](C)C4CCC4)c3n2C[C@H]2CC[C@H](C)CC2)c1` [Example 12.9, N-[(6-{[(1R)-1-cyclobutylethyl]amino}-7-[(trans-4-methylcyclohexyl)methyl]-8-[4-(propan-2-yl)pyridin-2-yl]-7H-purin-2-yl)methyl]methanesulfonamide] gave an IC50 of 374 nM.

Same assay, conditions: Table 11; read-out: FRET IC50
In the case of `C[C@@H](Nc1nc(-c2noc(=O)[nH]2)nc2nc(N3CCO[C@H](C)[C@H]3c3ccccc3)n(C[C@H]3CC[C@H](C)CC3)c12)C1CCC1` [Example 11.165, 3-(6-{[(1R)-1-cyclobutylethyl]amino}-7-[(trans-4-methylcyclohexyl)methyl]-8-[(2R,3R)-2-methyl-3-phenylmorpholin-4-yl]-7H-purin-2-yl)-1,2,4-oxadiazol-5(4H)-one], the IC50 is reported as 0.767 nM. In the case of `C[C@@H](Nc1nc(-c2n[nH]c(=O)o2)nc2nc(N3CCO[C@H](C)[C@H]3c3ccccc3)n(C[C@H]3CC[C@H](C)CC3)c12)C1CCC1` [Example 11.166, 5-(6-{[(1R)-1-cyclobutylethyl]amino}-7-[(trans-4-methylcyclohexyl)methyl]-8-[(2R,3R)-2-methyl-3-phenylmorpholin-4-yl]-7H-purin-2-yl)-1,3,4-oxadiazol-2(3H)-one], the IC50 is reported as 0.79 nM.

Same assay, conditions: read-out: % inh. at 1000 nM; at 1000 nM compound
`CC(C)c1ccnc(-c2nc3nc(CN)nc(N[C@H](C)C4CCC4)c3n2C[C@H]2CC[C@H](C)CC2)c1` [Example 12.4, 2-(aminomethyl)-N-[(1R)-1-cyclobutylethyl]-7-[(trans-4-methylcyclohexyl)methyl]-8-[4-(propan-2-yl)pyridin-2-yl]-7H-purine-6-amine] was tested, and the inhibition at 1 µM was 39%.
